“Also recorded” adds a separate entry of the source. Read-outs that look alike come from different tables or passages of the source.
Experiments:
Type in all cases: cell-based
MCF10A = assay: Single drug treatments, viability/toxicity; conditions: Homo sapiens, MCF-10A, read-out: MCF10A IC50
Source text: (§1) In our experiments, breast cancer cells were exemplified by MCF7 (an epithelial breast cancer cell line); non-tumorigenic breast cells were exemplified by the epithelial cell line MCF10A. We provided GPT4 with a prompt that had several aims:
(§2) In an additional experiment, 12 drugs were retested from the first round (n ≥ 3 replicates). An ANOVA two-way test with three replicates was used to calculate the significance of changes to viability compared with the internal control drug allopurinol for both cell lines (electronic supplementary material, figures S6 and S7). Two of the retested drugs were initially used as positive controls for MCF7 (doxorubicin and fulvestrant).

MCF7 [1] = assay: Single drug treatments, viability/toxicity; conditions: for toxicity towards MCF7: doses up to 25 µM
MCF7 [2] = assay: Single drug treatments, viability/toxicity; conditions: for reduction of viability of MCF7: two-way ANOVA vs allopurinol, concentrations up to 3.84 µM; for IC50: Homo sapiens, MCF7, retest of drugs from first round, n ≥ 3 replicates, MCF7
Source text: as §1, §2

MCF7 versus MCF10A = assay: Single drug specificity towards MCF7 compared with MCF10A; conditions: first round, MCF7 versus MCF10A viability
[3] = single drug, first round, maximum dose 25 µM
[4] = Homo sapiens, MCF7, single drug, first round, maximum dose 25 µM, read-out: MCF7 IC50
[5] = Homo sapiens, MCF7, read-out: MCF7 IC50

Compound	IC50 (MCF10A; [3]) [µM]	IC50 (MCF7 [1]; [4]) [µM]	toxicity towards MCF7 (MCF7 [1]; single drug, first round)	also measured
C[C@H]1O[C@H](O[C@H]2[C@H](O)[C@@H](O)[C@@H](O[C@H]3[C@H](O)[C@@H](O)C(O)O[C@@H]3CO)O[C@@H]2CO)[C@H](O)[C@@H](O)[C@@H]1N[C@H]1C=C(CO)[C@@H](O)[C@H](O)[C@H]1O (stereo partly drawn) [acarbose]	> 25	> 25	–	–
Oc1ncnc2[nH]ncc12 [allopurinol]	> 25	> 25	–	–
CC(C)NCC(O)COc1ccc(CC(N)=O)cc1 (stereo not drawn) [atenolol]	> 25	> 25	–	–
CC(C)c1c(C(=O)Nc2ccccc2)c(-c2ccccc2)c(-c2ccc(F)cc2)n1CC[C@@H](O)C[C@@H](O)CC(=O)O [atorvastatin]	3.79	> 25	–	–
Cc1ccc(-c2cc(C(F)(F)F)nn2-c2ccc(S(N)(=O)=O)cc2)cc1 [celecoxib]	22.6	5.33	showed toxicity towards MCF7	–
O=C(O)COCCN1CCN(C(c2ccccc2)c2ccc(Cl)cc2)CC1 (stereo not drawn) [cetirizine]	> 25	> 25	–	–
CCN(CC)CCCC(C)Nc1ccnc2cc(Cl)ccc12 (stereo not drawn) [chloroquine]	–	–	showed toxicity towards MCF7	IC50 (MCF10A): > 25 µM; IC50 (MCF7 [1]; Homo sapiens, MCF7): 10.6 µM; IC50 (MCF7 [1]; [5]): > 25 µM
CN/C(=N/CCSCc1nc[nH]c1C)NC#N [cimetidine]	> 25	> 25	showed toxicity towards MCF7	–
O=P1(N(CCCl)CCCl)NCCCO1 (stereo not drawn) [cyclophosphamide]	–	–	–	IC50 (MCF10A): > 25 µM; IC50 (MCF7 [1]; [5]): > 25 µM
OCCN(CCO)c1nc(N2CCCCC2)c2nc(N(CCO)CCO)nc(N3CCCCC3)c2n1 [dipyridamole]	> 25	> 25	–	reduction of viability of MCF7 (MCF7 [2]; retest n ≥ 3): significantly reduced the viability of MCF7; specificity towards MCF7 (MCF7 versus MCF10A): high specificity towards MCF7
CCN(CC)C(=S)SSC(=S)N(CC)CC [disulfiram]	> 25	0.204	–	IC50 (MCF7 [2]): 0.059 µM; specificity towards MCF7 (MCF7 versus MCF10A): high specificity towards MCF7
COc1cccc2c1C(=O)c1c(O)c3c(c(O)c1C2=O)C[C@@](O)(C(=O)CO)C[C@@H]3O[C@H]1C[C@H](N)[C@H](O)[C@H](C)O1 [doxorubicin]	–	–	–	IC50 (MCF7 [2]): 0.3 µM; reduction of viability of MCF7 (MCF7 [2]; retest n ≥ 3): also targeted MCF7; IC50 (MCF7 [1]; single drug, first round, maximum dose 25 µM, read-out: MCF7 IC50): < 25 µM
C[C@]12CC[C@@H]3c4ccc(O)cc4C[C@@H](CCCCCCCCC[S+]([O-])CCCC(F)(F)C(F)(F)F)[C@H]3[C@@H]1CC[C@@H]2O (stereo partly drawn) [fulvestrant]	> 25	> 25	–	reduction of viability of MCF7 (MCF7 [2]; retest n ≥ 3): also targeted MCF7; specificity towards MCF7 (MCF7 versus MCF10A): showed preference for MCF7
NS(=O)(=O)c1cc(C(=O)O)c(NCc2ccco2)cc1Cl [furosemide]	> 25	> 25	–	–
CCN(CCO)CCCC(C)Nc1ccnc2cc(Cl)ccc12 (stereo not drawn) [hydroxychloroquine]	> 25	> 25	showed toxicity towards MCF7	toxicity to MCF7 (MCF7 [2]; retest n ≥ 3, hydroxychloroquine statement at 25 µM): persistent and substantial
CCC(C)n1ncn(-c2ccc(N3CCN(c4ccc(OCC5COC(Cn6cncn6)(c6ccc(Cl)cc6Cl)O5)cc4)CC3)cc2)c1=O (stereo not drawn) [itraconazole]	> 25	> 25	showed toxicity towards MCF7	–
COC(=O)Nc1nc2ccc(C(=O)c3ccccc3)cc2[nH]1 [mebendazole]	15	> 25	showed toxicity towards MCF7	specificity towards MCF7 (MCF7 versus MCF10A): high specificity towards MCF7
CC12CC3CC(C)(C1)CC(N)(C3)C2 [memantine]	> 25	> 25	–	–
Cc1ncc([N+](=O)[O-])n1CCO [metronidazole]	> 25	> 25	–	–
O=C(Nc1ccc([N+](=O)[O-])cc1Cl)c1cc(Cl)ccc1O [niclosamide]	0.061	0.699	comparatively high toxicity; also recorded: showed toxicity towards MCF7	IC50 (MCF7 [2]): 1.22 µM; reduction of viability of MCF7 (MCF7 [2]; retest n ≥ 3): significantly reduced the viability of MCF7
COc1ccc2[nH]c([S+]([O-])Cc3ncc(C)c(OC)c3C)nc2c1 (stereo not drawn) [omeprazole]	> 25	> 25	–	–
CC(=O)c1c(C)c2cnc(Nc3ccc(N4CCNCC4)cn3)nc2n(C2CCCC2)c1=O [palbociclib]	> 25	> 25	–	–
CCN(CC)CCCC(C)Nc1c2ccc(Cl)cc2nc2ccc(OC)cc12 (stereo not drawn) [quinacrine]	10.2	3.85	showed toxicity towards MCF7	IC50 (MCF7 [2]): 4.71 µM; reduction of viability of MCF7 (MCF7 [2]; retest n ≥ 3): significantly reduced the viability of MCF7; specificity towards MCF7 (MCF7 versus MCF10A): high specificity towards MCF7
CCCc1nn(C)c2c(=O)[nH]c(-c3cc(S(=O)(=O)N4CCN(C)CC4)ccc3OCC)nc12 [sildenafil]	> 25	> 25	showed toxicity towards MCF7	–
CCC(C)(C)C(=O)O[C@H]1C[C@@H](C)C=C2C=C[C@H](C)[C@H](CC[C@@H]3C[C@@H](O)CC(=O)O3)[C@H]21 [simvastatin]	7.17	5.63	showed toxicity towards MCF7	–

— PMC12134935, “Scientific hypothesis generation by large language models: laboratory validation in breast cancer treatment” (Journal of the Royal Society Interface, 2025)
